Results: ChEMBL document CHEMBL5376005, “Gut Metabolite Indoxyl Sulfate Has Selective Deleterious and Anticancer Effect on Colon Cancer Cells” (J Med Chem, 2023)
Structures can show the parent of a compound that is named as a salt. Calls of active or inactive are those of the source. The rule behind the calls is not given here.

Key:
HCT-116 [1] = test: Cytotoxicity against human HCT-116 cells assessed as cell viability at 10 mM measured after 24 hrs by MTT assay (reference value: 100%); type: functional; settings: HCT-116, 24 h, read-out: Activity
HCT-116 [2] = test: Cytotoxicity against human HCT-116 cells assessed as cell viability at 10 mM measured after 72 hrs by MTT assay (reference value: 100%); type: functional; settings: HCT-116, 72 h, read-out: Activity
HCT-116 [3] = test: Cytotoxicity against human HCT-116 cells assessed as reduction in cell viability measured after 24 to 72 hrs by MTT assay; type: functional, cell-based; settings: dose 0.01-10 mM, time 24-72 hrs
HT-29 [4] = test: Cytotoxicity against human HT-29 cells assessed as reduction in cell viability measured after 24 to 72 hrs by MTT assay; type: functional, cell-based; settings: dose 0.01-10 mM, time 24-72 hrs
HT-29 [5] = test: Cytotoxicity against human HT-29 cells assessed as reduction in cell viability at 0.01 to 10 mM by MTT assay; type: functional, cell-based; settings: dose 0.01-10 mM, time 24-72 hrs, TDE = time-dependent effect
HCT-116 [6] = test: Cytotoxicity against human HCT-116 cells assessed as cell viability at 10 mM measured after 72 hrs by CellTiter-Glo luminescent cell viability assay (reference value: 100%); type: functional; settings: HCT-116, 72 h, read-out: Activity
HCT-116 [7] = test: Cytotoxicity against human HCT-116 cells assessed as reduction in cell viability measured after 48 to 72 hrs by CellTiter-Glo luminescent cell viability assay; type: functional, cell-based; settings: dose 0.01-10 mM, time 48-72 hrs
HT-29 [8] = test: Cytotoxicity against human HT-29 cells assessed as reduction in cell viability measured after 48 to 72 hrs by CellTiter-Glo luminescent cell viability assay; type: functional, cell-based; settings: dose 0.01-10 mM, time 48-72 hrs
HT-29 [9] = test: Cytotoxicity against human HT-29 cells assessed as reduction in cell viability at 0.01 to 10 mM by CellTiter-Glo luminescent cell viability assay; type: functional, cell-based; settings: dose 0.01-10 mM, time 48-72 hrs, TDE = time-dependent effect
Cell membrane [10] = test: Induction of membrane integrity loss in human HCT-116 cells assessed as LDH release in supernatant at 5 mM incubated for 48 hrs by absorbance based assay relative to control; type: subcellular
Cell membrane [11] = test: Induction of membrane integrity loss in human HT-29 cells assessed as LDH release in supernatant at 10 mM incubated for 48 hrs by absorbance based assay relative to control; type: subcellular
Cell membrane [12] = test: Induction of membrane integrity loss in human HCT-116 cells assessed as increase in LDH release in supernatant incubated for 48 hrs by absorbance based assay; type: subcellular; settings: dose 1.25-10 mM
HCT-116 [13] = test: Induction of apoptosis in human HCT-116 cells assessed as increase in apoptotic cells at 5 mM incubated for 48 hrs by annexin V-FITC/PI staining based flow cytometry analysis (reference value: 3%); type: functional
HT-29 [14] = test: Induction of apoptosis in human HT-29 cells assessed as increase in apoptotic cells at 10 mM incubated for 48 hrs by annexin V-FITC/PI staining based flow cytometry analysis (reference value: 3%); type: functional
HT-29 [15] = test: Induction of morphological changes in human HT-29 cells assessed as detachment from substrate at 1.25 to 10 mM incubated for 24 to 72 hrs by bright field microscopy analysis; type: functional, cell-based; settings: dose 1.25-10 mM, time 24-72 hrs
HCT-116 [16] = test: Induction of morphological changes in human HCT-116 cells assessed as formation of intracellular vesicles at 1.25 to 10 mM incubated for 24 to 72 hrs by bright field microscopy analysis; type: functional, cell-based; settings: dose 1.25-10 mM, time 24-72 hrs
HCT-116 [17] = test: Induction of morphological changes in human HCT-116 cells assessed as loss of adhesion with free floating in medium at 10 mM incubated for 24 to 72 hrs by bright field microscopy analysis; type: functional, cell-based; settings: time 24-72 hrs
HT-29 [18] = test: Induction of morphological changes in human HT-29 cells assessed as loss of adhesion with free floating in medium at 10 mM incubated for 24 to 72 hrs by bright field microscopy analysis; type: functional, cell-based; settings: time 24-72 hrs
HCT-116 [19] = test: Cytotoxicity against human HCT-116 cells assessed as reduction in colony formation pretreated for 48 hrs and further incubated for 10 days with media replacement for every alternate day; type: functional, cell-based; settings: dose 1.25-10 mM
HCT-116 [20] = test: Induction of cell cycle arrest in human HCT-116 cells assessed as increase in proportion of cells at G2/M phase at 10 mM incubated for 48 hrs by RNase A/Triton X-100/PI staining based flow cytometry analysis relative to control; type: functional
HT-29 [21] = test: Induction of cell cycle arrest in human HT-29 cells assessed as increase in proportion of cells at G2/M phase at 10 mM incubated for 48 hrs by RNase A/Triton X-100/PI staining based flow cytometry analysis relative to control; type: functional
HCT-116 [22] = test: Induction of cell cycle arrest in human HCT-116 cells assessed as increase in proportion of cells at G2/M phase incubated for 48 hrs by RNase A/Triton X-100/PI staining based flow cytometry analysis; type: functional; settings: dose 1.25-10 mM
[23] = Toxicity in wild type BALB/c mouse assessed as change in spleen length at 100 mM, ip measured after 12 weeks; type: organism-based; settings: in vivo, 2016 h, 100000 µM
[24] = Toxicity in wild type BALB/c mouse assessed as change in intestinal length at 100 mM, ip measured after 12 weeks; type: organism-based, Intestine; settings: in vivo, 2016 h, 100000 µM
[25] = Toxicity in wild type BALB/c mouse assessed as histological change in rectum at 100 mM, ip measured after 12 weeks by H and E staining based light microscopic analysis; type: organism-based; settings: in vivo, 2016 h, 100000 µM
[26] = Toxicity in wild type BALB/c mouse assessed as inflammatory symptoms by measuring change in fecal consistency at 100 mM, ip measured after 12 weeks; type: organism-based; settings: in vivo, 2016 h, 100000 µM
[27] = Toxicity in wild type BALB/c mouse assessed as inflammatory symptoms by measuring change in IL-17 level at 100 mM, ip measured for 0 to 3 months by ELISA; type: organism-based; settings: in vivo, 100000 µM, time 0-3 months
[28] = Toxicity in wild type BALB/c mouse assessed as inflammatory symptoms by measuring change in IL-17 level at 100 mM, REC measured for 0 to 3 months by ELISA; settings: in vivo, other, 100000 µM, time 0-3 months
[29] = Toxicity in wild type BALB/c mouse assessed as inflammatory symptoms by measuring change in IL-1beta level at 100 mM, REC measured for 0 to 3 months by ELISA; settings: in vivo, other, 100000 µM, time 0-3 months
HCT-116 [30] = test: Induction of ROS production in human HCT-116 cells incubated for 48 hrs by DHE staining based analysis; type: functional, cell-based
HT-29 [31] = test: Induction of ROS production in human HT-29 cells incubated for 48 hrs by DHE staining based analysis; type: functional, cell-based
HT-29 [32] = test: Induction of DNA damage in human HT-29 cells by comet assay; type: functional, cell-based

In the case of O=S(=O)(O)Oc1c[nH]c2ccccc12 [INDOXYL SULFATE], the viability at 10000 µM (HCT-116 [1]) is reported as 30%, the viability at 10000 µM (HCT-116 [2]) is reported as 4% and the Activity (HCT-116 [3]) is reported as “Dose-Dependent Effect”. For the same compound, the Activity (HT-29 [4]) was “Dose-Dependent Effect”, the Activity (HT-29 [5]) was “Tde” and the viability at 10000 µM (HCT-116 [6]) was 3%. The Activity (HCT-116 [7]) was “Dose-Dependent Effect”, the Activity (HT-29 [8]) was “Dose-Dependent Effect” and the Activity (HT-29 [9]) was “Tde”. For the same compound, the Activity (Cell membrane [10]) was 80%, the Activity (Cell membrane [11]) was 85% and the Activity (Cell membrane [12]) was “Dose-Dependent Effect”. The Activity (HCT-116 [13]) was 9%, the Activity (HT-29 [14]) was 12% and the Activity (HT-29 [15]) was “Active”. The Activity (HCT-116 [16]) was “Active”, the Activity (HCT-116 [17]) was “Active” and the Activity (HT-29 [18]) was “Active”. The Activity (HCT-116 [19]) was “Dose-Dependent Effect”, the Activity (HCT-116 [20]) was 22.7% and the Activity (HT-29 [21]) was 17.3%. The Activity (HCT-116 [22]) was “Dose-Dependent Effect”, the Activity [23] was “Non-Toxic” and the Activity [24] was “Non-Toxic”. For the same compound, the Activity [25] was “Non-Toxic”, the Activity [26] was “Non-Toxic” and the Activity [27] was “Non-Toxic”. The Activity [28] was “Non-Toxic”, the Activity [29] was “Non-Toxic” and the Activity (HCT-116 [30]) was “inactive”. The Activity (HT-29 [31]) was “inactive” and the Activity (HT-29 [32]) was “inactive”.
